Key:
[1] = Cytotoxicity against mouse RAW264.7 cells after 24 hrs by MTT assay; format: cell-based
Leishmania amazonensis = assay: Antipromastigote activity against Leishmania amazonensis MHOM/BR/77/LTB0016 after 24 hrs by MTT assay; format: functional, organism-based; settings: MHOM/BR/77/LTB0016, 24 h
Leishmania braziliensis = assay: Antipromastigote activity against Leishmania braziliensis MCAN/BR/98/R619 after 24 hrs by MTT assay; format: functional, organism-based; settings: MCAN/BR/98/R619, 24 h

## N=C(N)c1ccc(OCCCCCOc2ccc(C(=N)N)cc2)cc1 [PENTAMIDINE]
[1]
  CC50 at 24 h: 25.5 µM
Leishmania amazonensis
  IC50: 3.38 µM
Leishmania braziliensis
  IC50: 13 µM

Source: ChEMBL document CHEMBL2440095, “Synthesis and activity of novel tetrazole compounds and their pyrazole-4-carbonitrile precursors against Leishmania spp” (Bioorg Med Chem Lett, 2013)
